Peptide text beside a SMILES is read from it.
Biological target: T1, TGR26 (Rattus norvegicus, UniProt Q56UD9)
T1 construct: expressed in transfected cells; whole cells in A1, membrane fraction in A2 and A3
T1 sequence (Q56UD9 1-329): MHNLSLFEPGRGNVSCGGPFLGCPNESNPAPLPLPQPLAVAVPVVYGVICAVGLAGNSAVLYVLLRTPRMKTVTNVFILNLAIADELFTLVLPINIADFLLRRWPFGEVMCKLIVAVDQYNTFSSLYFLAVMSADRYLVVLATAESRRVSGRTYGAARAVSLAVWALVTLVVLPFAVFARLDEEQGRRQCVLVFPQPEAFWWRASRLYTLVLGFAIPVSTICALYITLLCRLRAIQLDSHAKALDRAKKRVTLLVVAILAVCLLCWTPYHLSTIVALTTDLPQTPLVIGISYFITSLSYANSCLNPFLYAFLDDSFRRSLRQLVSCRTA
Assay: Receptor binding using [125I-Tyr10]-hGPR8L (1-23) and membrane fraction of TGR26 expressing CHO cells
Details: membrane fraction of TGR26 expressing CHO cells, [125I-Tyr10]-hGPR8L (1-23), method of Example 8
Procedure: Using [^125I-Tyr^10]-hGPR8L (1-23) prepared by the method described in Reference Example 15 and a cell membrane fraction prepared from TGR26 expressing cells as described in Example 6, a receptor binding assay was carried out as follows.
Cell membrane fraction prepared from TGR26 expressing cells was diluted to various concentration with assay buffer (25 mM Tris-HCl, 5 mM EDTA, 0.05% CHAPS (3-[(3-Cholamidopropyl) Dimethyl-Ammonio]-1-Propanesulfonate), 0.1% BSA, 0.5 mM PMSF, 1 μg/ml Pepstatin, 20 μg/ml Leupeptin, 4 μg/ml E-64, pH 7.4), and 200 μl each of the diluent was dispensed into polypropilene test tube (Falcon 2053). In order to determine an amount of maximum binding, 2 μl of DMSO and 2 μl of 7 nM [^125I-Tyr^10]-hGPR8L (1-23) were added to the membrane fraction solution. Further, in order to determine a non-specific binding, 2 μl of 100 μM hGPR8L (1-23)/DMSO solution and 2 μl of 7 nM [^125I-Tyr^10]-hGPR8L (1-23) were added to the membrane fraction solution. The reaction was done at 25° C. for 75 minutes, and the reaction mixture was filtered by suction filtration using Whatman glassfilter (GF-F) treated with polyethyleneimine. In addition, the filter was washed twice with 1.5 ml of washing buffer (25 mM Tris-HCl, 5 mM EDTA, 0.05% CHAPS, 0.1% BSA, pH 7.4). After filtration, a radioactivity remaining on the filter was counted using γ-counter, and an amount of specific binding was estimated by subtracting an amount of non-specific binding from an amount of maximum binding.
Where the concentration of membrane fraction was set to 3 μg/ml, an inhibition for the specific binding of [125I-Tyr^10]-hGPR8L (1-23) to the membrane fraction of TGR26 expressing cells by hGPR8L (1-23) and hGPR8L (1-30) was investigated.
A receptor binding activity of human- and porcine-homologue derivatives of GPR8 ligand peptide obtained in the reference examples was measured using a membrane fraction of TGR26 expressing CHO cells and [^125I-Tyr^10]-hGPR8L (1-23) by the method described in Example 8. The receptor binding activity is represented by concentration of 50% inhibition for binding (IC50 value).

IC50 | Structure (SMILES)
570 nM | CSCC[C@H](NC(=O)[C@H](CC(C)C)NC(=O)[C@H](CC(C)C)NC(=O)CNC(=O)[C@H](C)NC(=O)[C@H](C)NC(=O)[C@H](CCCNC(=N)N)NC(=O)CNC(=O)[C@@H](NC(=O)[C@@H](NC(=O)[C@H](Cc1c[nH]cn1)NC(=O)[C@H](Cc1ccc(O)cc1)NC(=O)[C@H](CCCNC(=N)N)NC(=O)[C@@H]1CCCN1C(=O)[C@H](CO)NC(=O)[C@H](C)NC(=O)[C@@H](NC(=O)[C@H](Cc1c[nH]cn1)NC(=O)[C@H](CCCCN)NC(=O)[C@H](Cc1ccc(O)cc1)NC(C)=O)C(C)C)[C@@H](C)O)C(C)C)C(=O)NCC(=O)N[C@@H](CC(C)C)C(=O)O [Ac-hGPR8L (2-23), Ac-Tyr-Lys-His -Val-Ala-Ser-Pro-Arg-Tyr-His-Thr-Val-Gly-Arg-Ala-Ala-Gly-Leu-Leu-Met-Gly-Leu] (Ac-YKHVASPRYHTVGRAAGLLMGL-OH; C-terminus assumed)
0.23 nM | CSCC[C@H](NC(=O)[C@H](CC(C)C)NC(=O)[C@H](CC(C)C)NC(=O)CNC(=O)[C@H](C)NC(=O)[C@H](C)NC(=O)[C@H](CCCNC(=N)N)NC(=O)CNC(=O)[C@@H](NC(=O)[C@@H](NC(=O)[C@H](Cc1c[nH]cn1)NC(=O)[C@H](Cc1ccc(O)cc1)NC(=O)[C@H](CCCNC(=N)N)NC(=O)[C@@H]1CCCN1C(=O)[C@H](CO)NC(=O)[C@H](C)NC(=O)[C@@H](NC(=O)[C@H](Cc1c[nH]cn1)NC(=O)[C@H](CCCCN)NC(=O)[C@H](Cc1ccc(O)cc1)NC(=O)[C@H](Cc1c[nH]c2ccccc12)NC(=O)OCC1c2ccccc2-c2ccccc21)C(C)C)[C@@H](C)O)C(C)C)C(=O)NCC(=O)N[C@@H](CC(C)C)C(=O)O [Fmoc-hGPR8L (1-23)]
0.12 nM | CSCC[C@H](NC(=O)[C@H](CC(C)C)NC(=O)[C@H](CC(C)C)NC(=O)CNC(=O)[C@H](C)NC(=O)[C@H](C)NC(=O)[C@H](CCCNC(=N)N)NC(=O)CNC(=O)[C@@H](NC(=O)[C@@H](NC(=O)[C@H](Cc1c[nH]cn1)NC(=O)[C@H](Cc1ccc(O)cc1)NC(=O)[C@H](CCCNC(=N)N)NC(=O)[C@@H]1CCCN1C(=O)[C@H](CO)NC(=O)[C@H](C)NC(=O)[C@@H](NC(=O)[C@H](Cc1c[nH]cn1)NC(=O)[C@H](CCCCN)NC(=O)[C@H](Cc1ccc(O)cc1)NC(=O)CCc1c[nH]c2ccccc12)C(C)C)[C@@H](C)O)C(C)C)C(=O)NCC(=O)N[C@@H](CC(C)C)C(=O)O [IndPr-hGPR8L (2-23)] (HELM PEPTIDE1{[O=C(CCc1c[nH]c2ccccc12)[*:2]].Y.K.H.V.A.S.P.R.Y.H.T.V.G.R.A.A.G.L.L.M.G.L}$$$$V2.0; C-terminus assumed)
1.3 nM | CSCC[C@H](NC(=O)[C@H](CC(C)C)NC(=O)[C@H](CC(C)C)NC(=O)CNC(=O)[C@H](C)NC(=O)[C@H](C)NC(=O)[C@H](CCCNC(=N)N)NC(=O)CNC(=O)[C@@H](NC(=O)[C@@H](NC(=O)[C@H](Cc1c[nH]cn1)NC(=O)[C@H](Cc1ccc(O)cc1)NC(=O)[C@H](CCCNC(=N)N)NC(=O)[C@@H]1CCCN1C(=O)[C@H](CO)NC(=O)[C@H](C)NC(=O)[C@@H](NC(=O)[C@H](Cc1c[nH]cn1)NC(=O)[C@H](CCCCN)NC(=O)[C@H](Cc1ccc(O)cc1)NC(=O)[C@H](N)Cc1c[nH]c2ccccc12)C(C)C)[C@@H](C)O)C(C)C)C(=O)NCC(=O)N[C@@H](CC(C)C)C(=O)O [[D-Trp^1]-hGPR8L (1-23), D-Trp-Tyr-Lys-His-Val -Ala-Ser-Pro-Arg-Tyr-His-Thr-Val-Gly-Arg-Ala-Ala-Gly-Leu-Leu-Met-Gly-Leu]
0.29 nM | CC(C)C[C@H](NC(=O)CNC(=O)[C@H](CC[S+](C)[O-])NC(=O)[C@H](CC(C)C)NC(=O)[C@H](CC(C)C)NC(=O)CNC(=O)[C@H](C)NC(=O)[C@H](C)NC(=O)[C@H](CCCNC(=N)N)NC(=O)CNC(=O)[C@@H](NC(=O)[C@@H](NC(=O)[C@H](Cc1c[nH]cn1)NC(=O)[C@H](Cc1ccc(O)cc1)NC(=O)[C@H](CCCNC(=N)N)NC(=O)[C@@H]1CCCN1C(=O)[C@H](CO)NC(=O)[C@H](C)NC(=O)[C@@H](NC(=O)[C@H](Cc1c[nH]cn1)NC(=O)[C@H](CCCCN)NC(=O)[C@H](Cc1ccc(O)cc1)NC(=O)[C@@H](N)Cc1c[nH]c2ccccc12)C(C)C)[C@@H](C)O)C(C)C)C(=O)O (stereo partly drawn) [[Met(O)]-hGPR8L (1-23), Trp-Tyr-Lys-His-Val-Ala -Ser-Pro-Arg-Tyr-His-Thr-Val-Gly-Arg-Ala-Ala-Gly-Leu-Leu-Met(O)-Gly-Leu]
760 nM | CC(C)[C@H](NC(=O)[C@H](Cc1c[nH]cn1)NC(=O)[C@H](CCCCN)NC(=O)[C@H](Cc1ccc(O)cc1)NC(=O)[C@@H](N)Cc1c[nH]c2ccccc12)C(=O)N[C@@H](C)C(=O)N[C@@H](CO)C(=O)N1CCC[C@H]1C(=O)N[C@@H](CCCNC(=N)N)C(=O)N[C@@H](Cc1ccc(O)cc1)C(=O)N[C@@H](Cc1c[nH]cn1)C(=O)N[C@H](C(=O)N[C@H](C(=O)NCC(=O)N[C@@H](CCCNC(=N)N)C(=O)N[C@@H](C)C(=O)N[C@@H](C)C(=O)NCC(=O)O)C(C)C)[C@@H](C)O [hGPR8L (1-18), Trp-Tyr-Lys-His-Val-Ala-Ser -Pro-Arg-Tyr-His-Thr-Val-Gly-Arg-Ala-Ala-Gly] (H-WYKHVASPRYHTVGRAAG-OH; N-terminus and C-terminus assumed)
9.9 nM | CC(C)C[C@H](NC(=O)CNC(=O)[C@H](C)NC(=O)[C@H](C)NC(=O)[C@H](CCCNC(=N)N)NC(=O)CNC(=O)[C@@H](NC(=O)[C@@H](NC(=O)[C@H](Cc1c[nH]cn1)NC(=O)[C@H](Cc1ccc(O)cc1)NC(=O)[C@H](CCCNC(=N)N)NC(=O)[C@@H]1CCCN1C(=O)[C@H](CO)NC(=O)[C@H](C)NC(=O)[C@@H](NC(=O)[C@H](Cc1c[nH]cn1)NC(=O)[C@H](CCCCN)NC(=O)[C@H](Cc1ccc(O)cc1)NC(=O)[C@@H](N)Cc1c[nH]c2ccccc12)C(C)C)[C@@H](C)O)C(C)C)C(=O)O [hGPR8L (1-19), Trp-Tyr-Lys-His-Val-Ala-Ser -Pro-Arg-Tyr-His-Thr-Val-Gly-Arg-Ala-Ala-Gly-Leu] (H-WYKHVASPRYHTVGRAAGL-OH; N-terminus and C-terminus assumed)
0.17 nM | CC(C)C[C@H](NC(=O)[C@H](CC(C)C)NC(=O)CNC(=O)[C@H](C)NC(=O)[C@H](C)NC(=O)[C@H](CCCNC(=N)N)NC(=O)CNC(=O)[C@@H](NC(=O)[C@@H](NC(=O)[C@H](Cc1c[nH]cn1)NC(=O)[C@H](Cc1ccc(O)cc1)NC(=O)[C@H](CCCNC(=N)N)NC(=O)[C@@H]1CCCN1C(=O)[C@H](CO)NC(=O)[C@H](C)NC(=O)[C@@H](NC(=O)[C@H](Cc1c[nH]cn1)NC(=O)[C@H](CCCCN)NC(=O)[C@H](Cc1ccc(O)cc1)NC(=O)[C@@H](N)Cc1c[nH]c2ccccc12)C(C)C)[C@@H](C)O)C(C)C)C(=O)O [hGPR8L (1-20), Trp-Tyr-Lys-His-Val-Ala-Ser -Pro-Arg-Tyr-His-Thr-Val-Gly-Arg-Ala-Ala-Gly-Leu-Leu] (H-WYKHVASPRYHTVGRAAGLL-OH; N-terminus and C-terminus assumed)
240 nM | CSCC[C@H](NC(=O)[C@H](CC(C)C)NC(=O)[C@H](CC(C)C)NC(=O)CNC(=O)[C@H](C)NC(=O)[C@H](C)NC(=O)[C@H](CCCNC(=N)N)NC(=O)CNC(=O)[C@@H](NC(=O)[C@@H](NC(=O)[C@H](Cc1c[nH]cn1)NC(=O)[C@H](Cc1ccc(O)cc1)NC(=O)[C@H](CCCNC(=N)N)NC(=O)[C@@H]1CCCN1C(=O)[C@H](CO)NC(=O)[C@H](C)NC(=O)[C@@H](NC(=O)[C@H](Cc1c[nH]cn1)NC(=O)[C@H](CCCCN)NC(=O)[C@@H](N)Cc1ccc(O)cc1)C(C)C)[C@@H](C)O)C(C)C)C(=O)NCC(=O)N[C@@H](CC(C)C)C(=O)O [hGPR8L (2-23), Tyr-Lys-His-Val-Ala-Ser-Pro -Arg-Tyr-His-Thr-Val-Gly-Arg-Ala-Ala-Gly-Leu-Leu-Met-Gly-Leu] (H-YKHVASPRYHTVGRAAGLLMGL-OH; C-terminus assumed)

From patent publication US20040029178A1, “Novel g protein-coupled receptor proteins and dnas thereof” (priority 2000, published 2004)
